From patent US8933270B2, “Use of docasatrienes, resolvins, and their stable analogs in the treatment of airway diseases and asthma” (The Brigham and Women's Hospital, Inc., priority 2002, dated 2015)

Legend:
[1] = test system: airway hyper-responsiveness; assay: OVA model: airway responsiveness to inhaled methacholine (lung resistance); type: in vivo, FvB mice; conditions: PD1 0-200 ng; methacholine 0, 20, 50, 75 mg
Protocol: Because increased airway reactivity is a diagnostic hallmark of asthma, it was also determined if PD 1 regulated airway hyper-responsiveness to inhaled methacholine. After allergen sensitization and aerosol challenge in the presence of PD 1 (0-200 ng), animals were ventilated and exposed (10 sec) to increasing concentrations of inhaled methacholine (0, 20, 50 and 75 mg).
Five to seven week old male FvB mice (Charles River Laboratories, Wilmington, Mass.) were housed in isolation cages under viral antibody-free conditions. Mice were fed a standard diet (Laboratory Rodent Diet 5001, PMI Nutrition International, Richmond, Ind.) that contained no less than 4.5% total fat with 0.26% omega-3 fatty acids and <0.01% C20:4. […] On day 18, 24 h after the last aerosol challenge, airway responsiveness to aerosolized methacholine (0, 20, 50 and 75 mg, 10 sec) was measured, bilateral bronchoalveolar lavage (BAL) (2 aliquots of 1 ml PBS plus 0.6 mM EDTA) was performed or tissues were harvested for histological analysis. Lung resistance was measured using a Flexivent ventilator (SciReq, Montreal, Quebec). Resistance was measured as a function of time for each animal, and peak and average values for each dose of methacholine were recorded. […]

[2] = test system: airway leukocyte accumulation; assay: OVA sensitization and aerosol challenge: lung histology and BAL leukocytes; type: in vivo
Protocol: To determine if PD1 and Resolvin E1 had properties of a counter-regulatory mediator during airway inflammation, physiologically relevant quantities (2, 20 or 200 ng) were administered by intravenous injection to allergen sensitized animals just prior (30 min) to aerosol challenge on 4 consecutive days. […] In conjunction with decreased airway inflammation, levels of the counter-regulatory eicosanoid LXA4 were also […] in the presence of PD1 (data not shown).
(§1) Five to seven week old male FvB mice (Charles River Laboratories, Wilmington, Mass.) were housed in isolation cages under viral antibody-free conditions. Mice were fed a standard diet (Laboratory Rodent Diet 5001, PMI Nutrition International, Richmond, Ind.) that contained no less than 4.5% total fat with 0.26% omega-3 fatty acids and <0.01% C20:4. After Harvard Medical Area IRB approval (Protocol #02570), mice were sensitized with intraperitoneal injections of ovalbumin (OVA) (Grade III; Sigma Chemical Co., St. Louis, Mo.) (10 μg) plus 1 mg aluminum hydroxide (ALUM) (J. T. Baker Chemical Co.; Phillipsburg, N.J.) as adjuvant in 0.2 ml PBS on days 0 and 7. On days 14, 15, 16 and 17, the mice received PD1 (2, 20 or 200 ng), Resolvin E1 (200 ng) (products of biogenic synthesis (Hong, Gronert et al. 2003)), or PBS with 1.6 mM CaCl2 and 1.6 mM MgCl2 (0.1 ml) by intravenous injection 30 min prior to an aerosol challenge containing either PBS or 6% OVA for 25 min/day. On day 18, 24 h after the last aerosol challenge, airway responsiveness to aerosolized methacholine (0, 20, 50 and 75 mg, 10 sec) was measured, bilateral bronchoalveolar lavage (BAL) (2 aliquots of 1 ml PBS plus 0.6 mM EDTA) was performed or tissues were harvested for histological analysis. Lung resistance was measured using a Flexivent ventilator (SciReq, Montreal, Quebec). Resistance was measured as a function of time for each animal, and peak and average values for each dose of methacholine were recorded. No BAL or histological analysis was performed on those animals undergoing airway hyper-responsiveness or lipid extraction studies.
(§2) Tissue morphometry was performed by a member (K. Haley) of the Lung Histopathology Core Laboratory at Brigham and Women's Hospital who was blinded to the experimental conditions prior to histological analyses. Three fields per slide were examined at 200× magnification for vessels, large airways and alveoli with EOS counted at 400× magnification in randomly assigned fields. Vessels were identified by perivascular smooth muscle, and large airways were identified by at least ½ their diameter either cuboidal or columnar epithelia. Measurement of inflammatory mediators was determined in cell-free BAL fluid (2000 g, 10 min) by sensitive and specific ELISAs, in tandem, for interleukin-5 (IL-5), IL-12, IL-13, PGD2 (R&D Systems, Minneapolis, Minn.), cysteinyl LTs, (Cayman Chemical Co, Ann Arbor, Mich.), and LXA4 (Neogen, Lexington, Ky.). Cells in BALF were resuspended in PBS, enumerated by hemocytometer, and concentrated onto microscope slides by cytocentrifuge (STATspin) (265 g). Cells were stained with a Wright-Giemsa stain (Sigma Chemical Co.) to determine leukocyte differentials (after counting ≧200 cells).

[3] = test system: BALF cytokines and lipid mediators; assay: OVA model: inflammatory mediators in BAL fluid by ELISA; type: in vivo, FvB mice
Source text: as §1, §2

PMN infiltration = assay: Zymosan A-induced peritonitis; type: in vivo, FVB mice; conditions: i.v. bolus before zymosan A, lavage at 2 h
Protocol: FIG. 5 depicts Bioimpact properties of omega-3-derived Resolvins. A) Human glioma cells: Inhibition of TNF-stimulated IL-1β transcripts DBTRG-05MG cells 10^6/ml were stimulated with 50 ng/ml of human recombinant TNFα for 16 hours to induce expression of IL-1β transcripts. Concentration dependence with COX-2 products: 17-HDHA (n), 13-HDHA (l)and di-/tri-HDHA (n). […] (insets) Results are representative of RT-PCR gels of MG cells exposed to 100 nM of 13-HDHA or 17-HDHA and graphed after normalization of the IL-1β transcripts using GAPDH. B) Influence of eicosanoids and docosanoids on fMLP-induced neutrophil migration across micovascular endothelial monolayers Neutrophils (1×10^6 cells/monolayer) were exposed to vehicle containing buffer, or indicated concentrations of aspirin-triggered LXA4 analog (closed diamonds) 5S,12,18R-triHEPE (closed squares), 17R-HDHA (closed circles) or 13-HDHA (closed triangles) for 15 minutes at 37° C. Neutrophils were then layered on HMVEC monolayers and stimulated to transmigrate by a 10^−8 M fMLP gradient for 1 hr at 37° C. Transmigration was assessed by quantitation of the neutrophil marker myeloperoxidase. Results are presented as mean±SEM number of PMN (n=8-12 monolayers per condition). C) Reduction of PMN in murine peritonitis and skin pouch peritonitis: Compounds (100 ng in 120 μL sterile saline) were injected by intravenous bolus injection into the mouse tail vein and followed by 1 ml zymosan A (1 mg/ml) into the peritoneum. Peritoneal lavages were collected (2 h) and cell types were enumerated.
Human PMN transendothelial migration was quantitated by monitoring myeloperoxidase (MPO) an azurophilic granule marker as in (34, 37). Inflammatory exudates were initiated with intrapouch injection of recombinant mouse TNFα (100 ng/pouch; R&D Systems) into dorsal air pouches (10) of 6-8 wk male FVB mice fed laboratory rodent diet 5001 (Lab Diet, Purina Mills) containing less than 0.25% arachidonic acid, 1.49% EPA and 1.86% DHA followed by ASA (500 μg) at 3.5 h and 300 μg DHA/pouch at 4 h post-TNFα injection. At 6 h (within the resolution phase), pouches were lavaged (3 ml saline) and exudate cells were enumerated Inhibition of TNFα stimulated (100 ng/pouch) PMN infiltration with i.v. tail injection of either 17R-HDHA (as prepared with COX-2 vide infra), 5S,12,18R-HEPE, or a 15-epi-LXA4 analog were determined with pouch lavages taken at 4 h. Peritonitis was performed using 6 to 8-week-old FVB male mice (Charles River Laboratories) fed laboratory Rodent Diet 5001 (Purina Mills) that were anesthetized with isoflurane, and compounds to be tested (125 μl) were administered intravenously. Zymosan A in 1 ml (1 mg/ml) was injected ˜1-1.5 min later in the peritoneum. Each test compound (100 ng/incubation, i.e. 17R-HDHA in ethanol) or vehicle alone was suspended in ˜5 μl and mixed in sterile saline 120 μl. Two hours after the intraperitoneal injections, and in accordance with the Harvard Medical Area Standing Committee on Animals protocol #02570, mice were euthanized and peritoneal lavages rapidly collected for enumeration.
Peritonitis was induced in 6 to 8 week old male FVB mice by peritoneal injection of 1 mg Zymosan A. Compounds 4,17S and 10,17S-diHDHA were injected by intravenous bolus injection, 1.5 minutes before Zymosan A treatment. Two hours after induction of peritonitis, rapid peritoneal lavages were collected and cell type enumeration was performed.

[4] = i.v. 30 min before aerosol challenge on 4 days

CC/C=C\C[C@H](O)\C=C/C=C/C=C/C(O)C/C=C\C/C=C\CCC(=O)O (stereo in doubt) [PD1, 10,17S-dihydroxy-4,7,15,19-cis-11,13-trans-docosahexaenoic acid]
peak and average lung resistance in response to methacholine [1]: decreased both peak and average lung resistance
eosinophil and lymphs (FIG. 25) ([2]; 10,17-DT 20 ng and 200 ng, Resolvin E1 200 ng): reduced
total leukocytes, EOS and Lymphs in BAL fluid ([2]; PD1 2, 20 or 200 ng, Resolvin E1 200 ng i.v.): decreased
behavioral or physical signs of toxicity ([2]; PD1 treatment, nanogram quantities i.v.): No behavioral or physical signs of toxicity
lowest dose reducing TH2 lymphocyte activation / eosinophil recruitment ([2]; i.v.): 2 ng
EOS tissue infiltration around vessels, large and peripheral airways (morphometry) [2, 4]: significant decreases
edema and epithelial hyperplasia [2, 4]: markedly decreased
eosinophils and lymphocytes in peribronchiolar regions and airspaces ([2]; i.v. 30 min before aerosol challenge on 4 days, vs vehicle): substantially less
IL-12 levels ([3]; BAL fluid): no significant effect
allergen-induced increase in CysLTs ([3]; BAL fluid): blocked allergen-induced increases
allergen-induced increase in IL-13 ([3]; BAL fluid): blocked allergen-induced increases
allergen-induced increase in PGD2 ([3]; BAL fluid): blocked allergen-induced increases
potency of inhibitory concentrations relative to the LX analog ([3]; IL-13 and CysLT generation): 1 to 2 log orders
levels of LXA4 ([3]; data not shown): diminished
inhibition of PMN/leukocyte infiltration (PMN infiltration; listed as 10,17S-docosatrienes): potent inhibition
inhibition of PMN/leukocyte infiltration (PMN infiltration; listed as 10,17 di-HDHA): inhibited
